Source: patent publication US9850247B2 (Almac Discovery Limited, priority 2013, dated 2017)

Columns and labels:
Wee-1 kinase = target: T1, Wee-1 kinase (Homo sapiens, UniProt P30291); test: Measurement of Wee-1 kinase activity (ADP-Glo luminescent kit); assay type: biochemical
T1 construct: purchased Invitrogen PV3817
Procedure, shortened: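 ADP-Glo luminescence reads ADP made over 1 h at RT, after an aliquot of 30 μM ATP and 2.0 μg/mL poly(Lys,Tyr 4:1) substrate. Before that, the kinase sat 30 min with inhibitor in Tris-HCl/MgCl2 buffer with BSA and DTT. IC50 came from regression of percent inhibition.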

[1] = tested on: phospho-cdc2 (Tyr15) in HT-29 cells; test: Effect on Cdc2 phosphorylation at Tyr15, Cell-Based ELISA Base Kit (Method 3); settings: Homo sapiens, HT-29, 8 h, eight hours incubation, normalized to total cdc2, read-out: HT29 pCDC2 method 3
Procedure, shortened: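 HT-29 cells were treated with compounds for 8 h at 37 °C, then fixed in 4% formaldehyde. Phospho-cdc2 (Tyr15) and total cdc2 were read by dual-fluorogenic cell-based ELISA at 600/450 nm. Phospho signal was normalized to total cdc2 and expressed as % of DMSO control, and EC50 came from non-linear regression.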

T1 sequence (P30291 whole entry): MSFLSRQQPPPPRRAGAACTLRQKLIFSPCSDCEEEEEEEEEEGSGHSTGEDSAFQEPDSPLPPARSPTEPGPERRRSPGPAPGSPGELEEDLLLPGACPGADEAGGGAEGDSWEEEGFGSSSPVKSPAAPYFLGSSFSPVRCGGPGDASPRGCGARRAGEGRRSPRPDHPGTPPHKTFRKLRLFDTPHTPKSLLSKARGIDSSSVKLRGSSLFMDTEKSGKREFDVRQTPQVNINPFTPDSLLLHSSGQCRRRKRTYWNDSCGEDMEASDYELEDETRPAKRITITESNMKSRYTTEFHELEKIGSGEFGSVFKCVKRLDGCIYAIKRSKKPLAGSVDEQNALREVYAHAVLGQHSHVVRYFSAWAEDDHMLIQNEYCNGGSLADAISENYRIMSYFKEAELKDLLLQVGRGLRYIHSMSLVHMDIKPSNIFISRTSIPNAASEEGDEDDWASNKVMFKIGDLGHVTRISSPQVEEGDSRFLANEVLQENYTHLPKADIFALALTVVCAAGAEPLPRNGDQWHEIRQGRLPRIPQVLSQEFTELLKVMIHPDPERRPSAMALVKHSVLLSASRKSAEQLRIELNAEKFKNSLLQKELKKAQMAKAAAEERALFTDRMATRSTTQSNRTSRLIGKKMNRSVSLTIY

Compound | IC50 (Wee-1 kinase) | EC50 [1]
C[C@H]1CN(c2ccc(Nc3ncc4c(n3)N(C)CN(c3c(Cl)cccc3Cl)C4=O)cc2)CCN1 [Example 17, (S)-3-(2,6-Dichlorophenyl)-1-methyl-7-((4-(3-methylpiperazin-1-yl)phenyl)amino)-2,3-dihydropyrimido[4,5-d]pyrimidin-4(1H)-one] | 10 to 100 nM | 100 to 1000 nM
CN1CN(c2c(Cl)cccc2Cl)C(=O)c2cnc(Nc3ccc(N4CCNCC4)cc3)nc21 [Example 1, 3-(2,6-Dichlorophenyl)-1-methyl-7-((4-(piperazin-1-yl)phenyl)amino)-2,3-dihydropyrimido[4,5-d]pyrimidin-4(1H)-one] | ≤ 10 nM | 100 to 1000 nM
CN1CCc2ccc(Nc3ncc4c(n3)N(C)CN(c3c(Cl)cccc3Cl)C4=O)cc2C1 [Example 22, 3-(2,6-Dichlorophenyl)-1-methyl-7-((2-methyl-1,2,3,4-tetrahydroisoquinolin-7-yl)amino)-2,3-dihydropyrimido[4,5-d]pyrimidin-4(1H)-one] | ≤ 10 nM | 100 to 1000 nM
C[C@@H]1CN[C@@H](C)CN1c1ccc(Nc2ncc3c(n2)N(C)CN(c2c(Cl)cccc2Cl)C3=O)cc1 [Example 40, 3-(2,6-dichlorophenyl)-7-((4-((2R,5S)-2,5-dimethylpiperazin-1-yl)phenyl)amino)-1-methyl-2,3-dihydropyrimido[4,5-d]pyrimidin-4(1H)-one] | ≤ 10 nM | 100 to 1000 nM
CN1CN(c2c(Cl)cccc2Cl)C(=O)c2cnc(Nc3ccc(N4CCN[C@@H](CO)C4)cc3)nc21 [Example 19, (R)-3-(2,6-Dichlorophenyl)-7-((4-(3-(hydroxymethyl)piperazin-1-yl)phenyl)amino)-1-methyl-2,3-dihydropyrimido[4,5-d]pyrimidin-4(1H)-one] | ≤ 10 nM | 100 to 1000 nM
CN1CN(c2c(Cl)cccc2Cl)C(=O)c2cnc(Nc3ccc4c(c3)CNCC4)nc21 [Example 14, 3-(2,6-Dichlorophenyl)-1-methyl-7-((1,2,3,4-tetrahydroisoquinolin-7-yl)amino)-2,3-dihydropyrimido[4,5-d]pyrimidin-4(1H)-one] | ≤ 10 nM | 100 to 1000 nM
COc1cc(Nc2ncc3c(n2)N(C)CN(c2c(Cl)cccc2Cl)C3=O)ccc1N1CCNCC1 [Example 3, 3-(2,6-Dichlorophenyl)-7-((3-methoxy-4-(piperazin-1-yl)phenyl)amino)-1-methyl-2,3-dihydropyrimido[4,5-d]pyrimidin-4(1H)-one] | ≤ 10 nM | 100 to 1000 nM
CN1CN(c2c(Cl)cccc2Cl)C(=O)c2cnc(Nc3ccc(N4CC5CCC(C4)N5)cc3)nc21 [Example 74, 7-((4-(3,8-diazabicyclo[3.2.1]octan-3-yl)phenyl)amino)-3-(2,6-dichlorophenyl)-1-methyl-2,3-dihydropyrimido [4,5-d]pyrimidin-4(1H)-one] | 10 to 100 nM | 100 to 1000 nM
COCc1cc(Nc2ncc3c(n2)N(C)CN(c2c(Cl)cccc2Cl)C3=O)ccc1N1CCN[C@H](C)C1 [Example 59, (R)-3-(2,6-dichlorophenyl)-7-((3-(methoxymethyl)-4-(3-methylpiperazin-1-yl)phenyl)amino)-1-methyl-2,3-dihydropyrimido[4,5-d]pyrimidin-4(1H)-one] | 10 to 100 nM | 100 to 1000 nM
C[C@@H]1CN(c2ccc(Nc3ncc4c(n3)N(C)CN(c3c(Cl)cccc3Cl)C4=O)cc2)[C@@H](C)CN1 [Example 80, 3-(2,6-dichlorophenyl)-7-((4-((2S,5R)-2,5-dimethylpiperazin-1-yl)phenyl)amino)-1-methyl-2,3-dihydropyrimido[4,5-d]pyrimidin-4(1H)-one] | ≤ 10 nM | 100 to 1000 nM
C[C@@H]1CN(c2ccc(Nc3ncc4c(n3)N(C)CN(c3c(Cl)cccc3Cl)C4=O)cc2F)CCN1 [Example 43, (R)-3-(2,6-dichlorophenyl)-7-((3-fluoro-4-(3-methylpiperazin-1-yl)phenyl)amino)-1-methyl-2,3-dihydropyrimido[4,5-d]pyrimidin-4(1H)-one] | ≤ 10 nM | 100 to 1000 nM
CN1CN(c2c(Cl)cccc2Cl)C(=O)c2cnc(Nc3ccc(N4CC5CCC(C4)N5C)c(CO)c3)nc21 [Example 86, 3-(2,6-dichlorophenyl)-7-((3-(hydroxymethyl)-4-(8-methyl-3,8-diazabicyclo[3.2.1]octan-3-yl)phenyl)amino)-1-methyl-2,3-dihydropyrimido[4,5-d]pyrimidin-4(1H)-one] | ≤ 10 nM | 100 to 1000 nM
Cc1cc(Nc2ncc3c(n2)N(C)CN(c2c(Cl)cccc2Cl)C3=O)ccc1N1CCNCC1 [Example 6, 3-(2,6-Dichlorophenyl)-1-methyl-7-((3-methyl-4-(piperazin-1-yl)phenyl)amino)-2,3-dihydropyrimido[4,5-d]pyrimidin-4(1H)-one] | ≤ 10 nM | 100 to 1000 nM

Continued, in another order:

IC50 (Wee-1 kinase) | Compound | EC50 [1]
≤ 10 nM | C[C@@H]1CN(c2ccc(Nc3ncc4c(n3)N(C)CN(c3c(Cl)cccc3Cl)C4=O)cc2)CCN1 [Example 16, (R)-3-(2,6-Dichlorophenyl)-1-methyl-7-((4-(3-methylpiperazin-1-yl)phenyl)amino)-2,3-dihydropyrimido[4,5-d]pyrimidin-4(1H)-one] | 100 to 1000 nM
10 to 100 nM | COCc1cc(Nc2ncc3c(n2)N(C)CN(c2c(Cl)cccc2Cl)C3=O)ccc1N1CCNCC1 [Example 31, 3-(2,6-dichlorophenyl)-7-((3-(methoxymethyl)-4-(piperazin-1-yl)phenyl)amino)-1-methyl-2,3-dihydropyrimido[4,5-d]pyrimidin-4(1H)-one] | 100 to 1000 nM
≤ 10 nM | CN1CN(c2c(Cl)cccc2Cl)C(=O)c2cnc(Nc3ccc(N4CCN(C(=O)CN)CC4)cc3)nc21 [Example 13, 7-((4-(4-(2-Aminoacetyl)piperazin-1-yl)phenyl)amino)-3-(2,6-dichlorophenyl)-1-methyl-2,3-dihydropyrimido[4,5-d]pyrimidin-4(1H)-one] | 100 to 1000 nM
≤ 10 nM | CNCc1cc(Nc2ncc3c(n2)N(C)CN(c2c(Cl)cccc2Cl)C3=O)ccc1N1CCOCC1 [Example 5, 3-(2,6-Dichlorophenyl)-1-methyl-7-((3-((methylamino)methyl)-4-morpholinophenyl)amino)-2,3-dihydropyrimido[4,5-d]pyrimidin-4(1H)-one] | 100 to 1000 nM
≤ 10 nM | [2H]C1([2H])N(C)c2nc(Nc3ccc(N4CCNCC4)cc3)ncc2C(=O)N1c1c(Cl)cccc1Cl [Example 15, 3-(2,6-Dichlorophenyl)-2,2-dideutero-1-methyl-7-((4-(piperazin-1-yl)phenyl)amino)-2,3-dihydropyrimido[4,5-d]pyrimidin-4(1H)-one] | 100 to 1000 nM
≤ 10 nM | CNCCOc1ccc(Nc2ncc3c(n2)N(C)CN(c2c(Cl)cccc2Cl)C3=O)cc1 [Example 2, 3-(2,6-Dichlorophenyl)-1-methyl-7-((4-(2-(methylamino)ethoxy)phenyl)amino)-2,3-dihydropyrimido[4,5-d]pyrimidin-4(1H)-one] | 100 to 1000 nM
10 to 100 nM | CC(C)N1CCN(c2ccc(Nc3ncc4c(n3)N(C)CN(c3c(Cl)cccc3Cl)C4=O)cc2CO)CC1 [Example 21, 3-(2,6-Dichlorophenyl)-7-((3-(hydroxymethyl)-4-(4-isopropylpiperazin-1-yl)phenyl)amino)-1-methyl-2,3-dihydropyrimido[4,5-d]pyrimidin-4(1H)-one] | 100 to 1000 nM
10 to 100 nM | COC[C@H]1CN(c2ccc(Nc3ncc4c(n3)N(C)CN(c3c(Cl)cccc3Cl)C4=O)cc2)CCN1 [Example 60, (R)-3-(2,6-dichlorophenyl)-7-((4-(3-(methoxymethyl)piperazin-1-yl)phenyl)amino)-1-methyl-2,3-dihydropyrimido[4,5-d]pyrimidin-4(1H)-one] | 100 to 1000 nM
≤ 10 nM | Cc1cc(Nc2ncc3c(n2)N(C)CN(c2c(Cl)cccc2Cl)C3=O)ccc1C1CCNCC1 [Example 18, 3-(2,6-Dichlorophenyl)-1-methyl-7-((3-methyl-4-(piperidin-4-yl)phenyl)amino)-2,3-dihydropyrimido[4,5-d]pyrimidin-4(1H)-one] | 100 to 1000 nM
≤ 10 nM | CN1CN(c2c(Cl)cccc2Cl)C(=O)c2cnc(Nc3ccc(N4CCNCC4)c(C#N)c3)nc21 [Example 11, 3-(2,6-Dichlorophenyl)-7-((3-cyano-4-(piperazin-1-yl)phenyl)amino)-1-methyl-2,3-dihydropyrimido[4,5-d]pyrimidin-4(1H)-one] | 100 to 1000 nM
10 to 100 nM | CN1CN(c2c(F)cccc2Cl)C(=O)c2cnc(Nc3ccc(N4CCNCC4)cc3)nc21 [Example 25, 3-(2-Chloro-6-fluorophenyl)-1-methyl-7-((4-(piperazin-1-yl)phenyl)amino)-2,3-dihydropyrimido[4,5-d]pyrimidin-4(1H)-one] | 100 to 1000 nM
10 to 100 nM | C[C@@H]1CN(c2ccc(Nc3ncc4c(n3)N(C)CN(c3c(F)cccc3Cl)C4=O)cc2)CCN1 [Example 53, (R)-3-(2-chloro-6-fluorophenyl)-1-methyl-7-((4-(3-methylpiperazin-1-yl)phenyl)amino)-2,3-dihydropyrimido[4,5-d]pyrimidin-4(1H)-one] | 100 to 1000 nM
